What was measured:
mAb Mac2-158 = assay: Epitope mapping of mAb Mac2-158 with circular peptides of human CD163 SRCR domain 1; type: binding; details: circular peptides aligned to SRCR domain 1 of human CD163
From the text: As a result, the following sequences (as well as motifs derived therefrom) are highly suitable epitopes anti-CD163 antibodies and fragments thereof used as SADC biopolymer scaffold: […]

[1] = test system: IgG from human donors (anti-measles virus antibodies); type: binding; set-up: key: X: The peptides belonging to the Top 10% hits
[2] = test system: IgG from human donors (anti-AAV antibodies); assay: Screen for anti-AAV antibodies in human sera, 2452 linear 15-amino-acid AAV peptides on microarrays (Table 1); type: binding; set-up: key to group I: X: the deduplicated aggregate of the respective top 10 peptide hits for each donor was compiled and designated as group I; key to group II: X: the deduplicated aggregate of the respective top 25 peptide hits for each donor was compiled and designated as group II; key to group III: X: the deduplicated aggregate of the respective top 50 peptide hits for each donor was compiled and designated as group III; details: human donor IgG binding to linear 15-amino-acid AAV peptides on microarray, fluorescence; for group I: membership in deduplicated aggregate of top 10 peptide hits for each donor; for group II: membership in deduplicated aggregate of top 25 peptide hits for each donor; for group III: membership in deduplicated aggregate of top 50 peptide hits for each donor
Procedure, shortened: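 Protein G-purified IgG from human donor blood incubated with microarrays of 2452 linear 15-mer peptides from 16 AAVs; binding read by fluorescence. Background-subtracted signals ranked per donor, with top 10, 25, 50 and 250 hits pooled and deduplicated into groups I-IV.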

mAb 9C12 = assay: Epitope mapping of monoclonal antibody 9C12 against cyclic peptides of the AdV hexon protein (peptide microarray); type: binding, mice; details: cyclic 7mer, 10mer, 13mer peptides of AdV hexon
Method: Monoclonal antibody 9C12 (alias mAB TC31-9C12·C9-s) was generated by immunizing mice with the hexon protein (Uniprot ID: P04133 which corresponds to GenBank: BAG48782.1). […] In brief, diluted antibody was incubated with GFP-expressing replication-defective Ad vector and subsequently added to Hela cells followed by fluorescence readout. […] The binding signal of mAb 9C12 to the peptides yielded several candidates that could be aligned and clustered against the protein. An epitopic cluster region of 20 amino acids was identified from which paratope binding peptides can be preferentially derived. Below are the aligments of the corresponding peptide hits from this screen. […] Cyclic peptides were selected out of up to 50 top binders in this experiment.

Row | Substance | peptide number among the top 20 peptide hits of mAb Mac2-158 (mAb Mac2-158) | top 10% [1] | group I [2] | group II [2] | group III [2] | ranked binding signal obtained from the microarray (01 binds strongest) (mAb 9C12)
1 | 365 (CSGRVEVKVQEEW) [compound 365] | 07 |  |  |  |  | 
2 | ANNLTSTVQIFADS (REGION 1..14: note = peptide derived from viral capsid protein) [SEQ ID NO: 1895] |  | X | X | X | X | 
3 | EEEIRTTNPVATEQ (REGION 1..14: note = peptide derived from viral capsid protein) [SEQ ID NO: 1979] |  |  | X | X | X | 12
4 | EEIRTTNPVATEQY (REGION 1..14: note = peptide derived from viral capsid protein) [SEQ ID NO: 1980] |  |  | X | X | X | 13
5 | FGKQGAGRDNVDYS [SEQ ID NO: 1915] |  | X | X | X | X | 
6 | FNIQVKEVTTNDGV (REGION 1..14: note = peptide derived from viral capsid protein) [SEQ ID NO: 1910] | 06 |  | X | X | X | 
7 | FQERLKEDTSFGGN (REGION 1..14: note = peptide derived from viral capsid protein) [SEQ ID NO: 1981] |  |  | X | X | X | 14
8 | GADGVGNSSGNWHC (REGION 1..14: note = peptide derived from viral capsid protein) [SEQ ID NO: 1982] |  |  | X | X | X | 15
9 | GDSESVPDPQPLGE [SEQ ID NO: 1983] |  |  | X | X | X | 16
10 | GETTRPATAAQTQV [SEQ ID NO: 1906] | 01 |  | X | X | X | 
11 | GKKRPVDQSPQEPD (REGION 1..14: note = peptide derived from viral capsid protein) [SEQ ID NO: 1919] |  | X | X | X | X | 
12 | GNGLDKGEPVNAAD [SEQ ID NO: 1984] |  |  | X | X | X | 17
13 | GQTGDSESVPDPQP [SEQ ID NO: 1911] | 08 |  | X | X | X | 
14 | IFNIQVKEVTTSNG (REGION 1..14: note = peptide derived from viral capsid protein) [SEQ ID NO: 1907] | 02 |  | X | X | X | 
15 | KKRPVDQSPQEPDS (REGION 1..14: note = peptide derived from viral capsid protein) [SEQ ID NO: 1985] |  |  | X | X | X | 18
16 | KRPVDQSPQEPDSS (REGION 1..14: note = peptide derived from viral capsid protein) [SEQ ID NO: 1986] |  |  | X | X | X | 19
17 | KSVNVDFTVDTNGV (REGION 1..14: note = peptide derived from viral capsid protein) [SEQ ID NO: 1987] |  |  | X | X | X | 20
18 | LEDNLSEGIREWWD (REGION 1..14: note = peptide derived from viral capsid protein) [SEQ ID NO: 1898] | 04 |  | X | X | X | 
19 | LIKNTPVPADPPTT (REGION 1..14: note = peptide derived from viral capsid protein) [SEQ ID NO: 1900] | 12 |  | X | X | X | 
20 | LSRTQSTGGTQGTQ [SEQ ID NO: 1973] |  |  | X | X | X | 06
21 | PQYGYLTLNNGSQA (REGION 1..14: note = peptide derived from viral capsid protein) [SEQ ID NO: 1901] | 14 |  | X | X | X | 
22 | QLKAGDNPYLRYNH (REGION 1..14: note = peptide derived from viral capsid protein) [SEQ ID NO: 1913] | 13 |  | X | X | X | 
23 | SFITQYSTGQVSVE (REGION 1..14: note = peptide derived from viral capsid protein) [SEQ ID NO: 1914] | 17 |  | X | X | X | 
24 | TIANNLTSTIQVFT (REGION 1..14: note = peptide derived from viral capsid protein) [SEQ ID NO: 1968] |  |  | X | X | X | 01
25 | TQGTQQLLFSQAGP [SEQ ID NO: 1974] |  |  | X | X | X | 07
26 | TQYSTGQVSVEIEW (REGION 1..14: note = peptide derived from viral capsid protein) [SEQ ID NO: 1969] |  |  | X | X | X | 02
27 | VTQNEGTKTIANNL [SEQ ID NO: 1970] |  |  | X | X | X | 03
28 | WLEDNLSEGIREWW (REGION 1..14: note = peptide derived from viral capsid protein) [SEQ ID NO: 1971] |  |  | X | X | X | 04
29 | YFGYSTPWGYFDFN (REGION 1..14: note = peptide derived from viral capsid protein) [SEQ ID NO: 1972] |  |  | X | X | X | 05
